Results on six molecules are retold here after patent US5436271A, “N^6 -(hydrazinoiminomethyl)lysine and method of inhibiting nitric oxide formation in body” (Cornell Research Foundation, Inc., priority 1993, dated 1995).

pIC50: −log10 of the molar value. Like-named read-outs stand apart in the source and are kept apart here.

The subject of series [1] is nitric oxide synthase. Briefly: Efficacy on arterial blood pressure in endotoxin-treated anesthetized dog (Example IV). In kind it is in vivo. As for the experimental part:
To test the efficacy of N^6 -(hydrazinoiminomethyl)-L-lysine, a 28 kg fasted dog was anesthetized with pentobarbital (25 mg/kg, i.v.), orotracheally intubated to allow ventilation with a Harvard pump, and instrumented to allow arterial blood pressure to be monitored via a central catheter. After a constant normal blood pressure had been observed for about 90 min., a solution containing 2 mg/kg body weight of endotoxin (E. coli lipopolysaccharide obtained from Sigma Chemical Co.) was given as an intravenous bolus injection. […] When the mean arterial blood pressure had declined to about 70 mm Hg, a bolus intravenous injection of 20 mg/kg of N^6 -(hydrazinoiminomethyl)-L-lysine monohydrochloride (denote HAA) was given. […] At that time, the dog was given a bolus intravenous injection of 400 mg/kg of L-arginine (denoted L-ARG), the substrate of nitric oxide synthase and a specific antagonist of nitric oxide synthase inhibitors competing for the L-arginine binding site.

The target of series [2] is T1, cytokine-induced nitric oxide synthase isozyme (Mus musculus, UniProt P29477).
T1 construct: endogenous in cells; host or cells: cultured mouse brain endothelial cells induced with gamma-interferon and tumor necrosis factor
Briefly: Nitrite formation by cytokine-induced cultured mouse brain endothelial cells (Example V). The format is cell-based. As to the method:
In vitro studies with cultured endothelial cells were carried out to test the efficacy of N^6 -(hydrazinoiminomethyl)-L-lysine as an inhibitor of the cytokine-induced nitric oxide synthase isozyme relative to established inhibitors. Cultured mouse brain endothelial cells were grown for 18 hrs. in the presence of 1000 units/ml of gamma-interferon and 5000 units/ml of tumor necrosis factor, conditions shown previously to cause enzyme induction (R. Kilbourn and P. Belloni (1990) in "Nitric Oxide from L-Arginine: A Bioregulatory System" (S. Moncada and E. A. Higgs, eds.) pp. 61-67, Elsevier Science Publishers, Amsterdam). For control cells the culture media contained 50% Dulbecco's Modified Eagle's Medium, 45% Ham's F12 Medium with 5% fetal calf serum. […] Nitric oxide formation was monitored by following the increase in the concentration of nitrite in the culture medium. Nitric oxide spontaneously oxidizes to nitrite under the incubator conditions.

Series [3] in a line: Toxicity in awake dog, i.v. bolus plus infusion (Example II). In kind it is in vivo. As for the experimental part: To test the toxicity of N^6 -(hydrazinoiminomethyl)-L-lysine, a 30 kg awake dog was administered the hydrochloride salt of the drug at a dose of 20 mg/kg body weight as a single intravenous (i.v.) bolus. […] After 30 min., an additional dose of 20 mg/kg was given and an i.v. infusion of drug at a rate of 10 mg/kg body weight per hour was started. The infusion was continued for 5 hours. […] The spasms ended within 24 hours (48 hours after the experiment started), and the dog appeared normal and well in all respects.

Details of series [4]: species or system Swiss-Webster mice. To be noted: mouse, in vivo, sc. As to the method: To test the long-term toxicity of N^6 -(hydrazinoiminomethyl)-L-lysine,0.209 ml of a 200 mM solution of the hydrochloride salt of the drug (48 mg/ml) was loaded into each of three Alzet Osmotic Pumps (Model 2001), and the pumps were implanted subcutaneously on the backs of three individual Swiss-Webster mice (wts. 30.7, 34.8 and 33.4 gms) under pentobarbital anesthesia. Each pump delivered the solution of drug at a rate of […] for 1 week.

The target in series [5] is T2, constitutive isoform of nitric oxide synthase (Rattus norvegicus, UniProt Q62600).
T2 construct: from tissue; host or cells: isolated rat aortic rings (2-3 mm)
T2 sequence (Q62600 2-1202 limits assumed): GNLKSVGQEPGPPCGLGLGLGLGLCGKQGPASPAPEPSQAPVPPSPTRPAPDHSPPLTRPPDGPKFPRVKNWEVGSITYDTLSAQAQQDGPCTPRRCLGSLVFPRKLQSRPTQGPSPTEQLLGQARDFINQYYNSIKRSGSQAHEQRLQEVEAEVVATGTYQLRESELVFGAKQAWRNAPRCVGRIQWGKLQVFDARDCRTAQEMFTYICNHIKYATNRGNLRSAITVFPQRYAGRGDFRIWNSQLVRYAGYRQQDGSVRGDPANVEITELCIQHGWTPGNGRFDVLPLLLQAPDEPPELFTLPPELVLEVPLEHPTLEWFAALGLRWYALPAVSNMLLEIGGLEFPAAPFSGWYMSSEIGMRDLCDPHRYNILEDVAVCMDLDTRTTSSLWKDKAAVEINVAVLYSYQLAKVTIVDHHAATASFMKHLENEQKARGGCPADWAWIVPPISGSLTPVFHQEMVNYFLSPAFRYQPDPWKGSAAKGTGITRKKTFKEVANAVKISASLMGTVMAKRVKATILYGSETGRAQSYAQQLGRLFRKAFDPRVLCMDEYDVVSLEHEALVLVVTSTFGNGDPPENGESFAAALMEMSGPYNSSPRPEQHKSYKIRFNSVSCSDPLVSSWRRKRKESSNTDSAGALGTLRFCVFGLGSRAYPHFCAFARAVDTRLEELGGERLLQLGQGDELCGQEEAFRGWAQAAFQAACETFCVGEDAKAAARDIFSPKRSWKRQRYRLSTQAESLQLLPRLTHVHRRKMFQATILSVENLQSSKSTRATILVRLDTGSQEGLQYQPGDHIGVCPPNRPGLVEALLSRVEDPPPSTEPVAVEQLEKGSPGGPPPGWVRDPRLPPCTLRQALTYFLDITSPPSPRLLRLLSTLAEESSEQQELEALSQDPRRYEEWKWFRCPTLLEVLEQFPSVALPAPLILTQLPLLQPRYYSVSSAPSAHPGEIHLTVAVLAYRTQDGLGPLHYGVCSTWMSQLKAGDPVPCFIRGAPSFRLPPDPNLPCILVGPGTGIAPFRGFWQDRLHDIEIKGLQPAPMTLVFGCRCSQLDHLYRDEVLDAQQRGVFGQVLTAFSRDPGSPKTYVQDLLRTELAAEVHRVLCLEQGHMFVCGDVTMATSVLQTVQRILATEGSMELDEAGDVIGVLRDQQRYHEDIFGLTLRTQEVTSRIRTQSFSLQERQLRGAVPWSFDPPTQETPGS
Kind of series: Inhibition of acetylcholine relaxation of phenylephrine-contracted rat aortic rings (Example VI). As to the method:
In vitro studies with rat aortic rings were carried out to test the effect of N^6 -(hydrazinoiminomethyl)-L-lysine relative to other known inhibitors of the constitutive isoform of nitric oxide synthase. Aortic rings (2-3 mm) were isolated, suspended under a resting tension of 2.00 gm in 5 ml glass chambers containing Krebs-Henseleit solution gassed with 95% 02 and 5% CO2 at 37° C. as described previously for vascular rings from guinea pigs (O.A. Fasehun et al, (1990) J. Pharmacol. Exp. Ther. 255, 1348-1353). The aortic rings were then contracted by addition of 0.03 μM phenylephrine to the bathing solution, and the tension of the rings was measured. Acetylcholine, an agonist that stimulates the formation of nitric oxide by constitutive nitric oxide synthase in the vascular endothelium, was next added to a final concentration of 1 μM. The nitric oxide formed in response to acetylcholine causes the vascular smooth muscle of the aortic rings to relax, and the decrease in tension is measured. Inhibitors of nitric oxide synthase decrease the extent to which acetylcholine causes relaxation of the phenylephrine-contracted aortic rings. In the study, rings were contracted with phenylephrine, relaxed with acetylcholine, and then increasing doses of inhibitor were added to the bathing solution to overcome the effect of acetylcholine. The dose of inhibitor is denoted on the X-axis.

Series [6] relates to inducible isoform of nitric oxide synthase. To be noted: cited from earlier work.
The mark [7] stands for this setting: ratio of ED 50% approx., inducible isoform.
[8] abbreviates: rat aortic rings, 0.03 μM phenylephrine, 1 μM acetylcholine, read-out: concentration needed to overcome 50% of the relaxation caused by acetylcholine (ED50).

Take `N=C(N)NCCC[C@H](N)C(=O)O` [L-ARG, L-arginine, reference compound]: in series [1] (endotoxin dog treated with HAA, then 400 mg/kg i.v. bolus), the “blood pressure after reversal by substrate” value is “dropped precipitously to a level characteristic of septic (endotoxic) shock”.
Take `NN=C(N)NCCCCC(N)C(=O)O` (racemic) [N^6 -(hydrazinoiminomethyl)-D,L-lysine, N^6 -(Hydrazinoiminomethyl)-D,L-lysine]: the “blood pressure increase compared with L-form” value in series [1] (as Example IV, twice the dosage of the L-form) was “substantially equal results”. Also, the “inhibition of nitrite formation by induced endothelial cells compared with L-form” value in series [2] (as Example V, twice the concentration of the L-form) is “substantially equal results”.
On to `NN=C(N)NCCCC[C@H](N)C(=O)O` [HAA, N^6 -(hydrazinoiminomethyl)-L-lysine], for which, in series [3] (dog, in vivo), the “late signs of toxicity” value is listed as “periodic isolated myoclonic muscle spasms” and the “time until muscle spasms ended” value was no more than 24 h. Further, the signs of toxicity entry in series [3] (dog, in vivo, iv, 20 mg/kg) is “no signs of toxicity”. The molecule also displayed a survival in series [4] greater than 4 weeks. In addition, the “increase of blood pressure” value in series [1] (endotoxin 2 mg/kg dog, mean arterial pressure about 70 mm Hg, 20 mg/kg i.v. bolus, within a few minutes) is given as “about 30 mm Hg”. For the same molecule, in series [1] (endotoxin dog, after 20 mg/kg i.v. bolus), the “time blood pressure remained in physiologically acceptable range” value is reported as “about 45 min”. Besides, the pIC50 in series [2] (mouse brain endothelial cells, 18 hrs with gamma-interferon 1000 units/ml and tumor necrosis factor 5000 units/ml, read-out: dose required for approximately 50% inhibition (ED 50% approx.) of nitrite formation) was roughly 4.81. Further, in series [2] (setting [7]), the “potency relative to NAA” value was “approximately 4 times” and the “potency relative to NMMA” value is recorded as “approximately 8 times”. The pIC50 in series [5] (setting [8]) is roughly 4.99.
On to `N=C(NCCC[C@H](N)C(=O)O)N[N+](=O)[O-]` [NNA, N^G -nitro-L-arginine], for which the pIC50 in series [5] (setting [8]) is roughly 5.82. Moreover, the “rank as inhibitor of the inducible isoform among NNA, NAA, NMMA, HAA” value in series [6] is listed as “least effective inhibitor of the inducible isoform”.
Regarding `CNC(=N)NCCC[C@H](N)C(=O)O` [NMMA, N^G -methyl-L-arginine], in series [5] (setting [8]), the pIC50 is roughly 4.99.
Consider `N/N=C(\N)NCCC[C@H](N)C(=O)O` [NAA, N^G -amino-L-arginine, reference compound], for which the “toxicity at the same dose under similar circumstances” value in series [3] (awake dog, same dose as N6-(hydrazinoiminomethyl)-L-lysine) is listed as “major seizures”. Besides, the pIC50 in series [2] is roughly 4.20; in series [5], roughly 5.38.
